Article PMC8276662, “Synergy of alanine and gentamicin to reduce nitric oxide for elevating killing efficacy to antibiotic-resistant Vibrio alginolyticus” (Virulence, 2021)

Biological target: T1, CysJ (rCysJ; NOS-like protein) (Vibrio alginolyticus, UniProt A0A2I3CBL6)
T1 construct: dimer by blue native PAGE
T1 sequence (A0A2I3CBL6 1-623): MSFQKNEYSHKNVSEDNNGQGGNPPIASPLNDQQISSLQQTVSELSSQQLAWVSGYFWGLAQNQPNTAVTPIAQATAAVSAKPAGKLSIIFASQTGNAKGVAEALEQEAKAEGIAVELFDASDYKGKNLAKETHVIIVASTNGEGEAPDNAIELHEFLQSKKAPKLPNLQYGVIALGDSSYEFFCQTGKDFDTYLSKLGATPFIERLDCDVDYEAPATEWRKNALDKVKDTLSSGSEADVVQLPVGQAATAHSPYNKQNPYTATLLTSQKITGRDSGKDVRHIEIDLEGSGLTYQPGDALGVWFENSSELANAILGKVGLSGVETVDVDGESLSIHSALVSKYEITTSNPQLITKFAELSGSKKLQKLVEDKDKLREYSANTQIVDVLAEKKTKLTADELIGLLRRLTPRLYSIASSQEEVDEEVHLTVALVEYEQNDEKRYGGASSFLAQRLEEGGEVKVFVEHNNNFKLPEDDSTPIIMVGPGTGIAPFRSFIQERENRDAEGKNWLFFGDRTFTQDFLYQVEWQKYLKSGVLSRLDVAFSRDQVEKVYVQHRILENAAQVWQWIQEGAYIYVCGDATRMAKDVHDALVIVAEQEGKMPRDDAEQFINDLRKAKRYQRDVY
Assay: colorimetric nitric oxide synthase activity kit, A530
Assay type: biochemical
Conditions: 0.5 mM L-NMMA, preincubated 30 C 2 h (as described for lysate proteins); assay 37 C 15 min; mode not stated

## CNC(=N)NCCC[C@H](N)C(=O)O [L-NMMA]
  activity of NOS was reduced: When L-NMMA was used, activity of NOS was reduced (Figure 8b).
